Data from US20130165471A1, “2-SUBSTITUTED-THIENOQUINOLONES AND RELATED COMPOUNDS AS ANTI-INFECTIVE AGENTS” (Achillion Pharmaceuticals Inc., priority 2011, published 2013).
Converted amounts (≈) assume the structure as drawn.

Experiments:
S. aureus ATCC 29213 = assay: Minimum inhibitory concentration (MIC) assay, MSSA; format: cell-based; conditions: Staphylococcus aureus, broth microdilution
Protocol: (§1) The preparation of compounds listed in Table I can be carried out under conditions analogous to those described in the examples above. Those of skill in the art will recognize routine changes in reaction conditions and starting materials needed to produce the listed compounds. For example, compound 5 in Table I, is prepared by the method shown above, except tert-butyl (1-(pyrrolidin-3-yl)ethyl)carbamate, prepared by the method shown in Schoeder, et al., J. Heterocyclic Chem., 29: 1481-1498 (1992), is used as the amine starting material. Compound activity was evaluated in a standard minimal inhibitory concentration assay such as the assay provided in Example 4. Compound cytotoxicity is determined using a standard assay of cytotoxicity such as the assay provided in Example 5. Compounds 10, 14, and 20 of Table I are provided as comparative examples.
(§2) The antimicrobial activity of the compounds of the invention may be evaluated by a number of methods, including the following visual minimum inhibitory concentration (MIC) assay. This assay determines the minimum concentration of compound required to inhibit growth of a bacterial strain.
(§3) Whole-cell antibacterial activity is determined by broth microdilution using conditions recommended by the NCCLS (see National Committee for Clinical Laboratory Standards. 2001. Performance standards for antimicrobial susceptibility testing: 11th informational supplement. Vol. 21, no. 1, M100-S11. National Committee for Clinical Laboratory Standards, Wayne, Pa.). Test compounds are dissolved in DMSO and diluted 1:50 in Mueller-Hinton II broth (Becton-Dickinson) to produce a 256 μg/ml stock solution. In a 96-well microtiter plate, the compound solution is serially two-fold diluted in Mueller-Hinton II broth. After the compounds are diluted, a 50 μl aliquot of the test organism (˜1×10^6 cfu/mL) is added to each well of the microtiter plate. The final test concentrations range from 0.125-128 μg/mL. Inoculated plates are incubated in ambient air at 37° C. for 18 to 24 hours. The organisms selected for testing included laboratory strains S. aureus ATCC 29213 and E. coli ATCC 25922 (strains purchased from American Type Culture Collection, Manassas, Va.) m, S. aureus FQR700699, and Paeruginosa 27853. The minimum inhibitory concentration (MIC) is determined as the lowest concentration of compound that inhibited visible growth of the test organism.

[1] = tested on: fluoroquinolone-resistant S. aureus ATCC 700699; assay: Minimum inhibitory concentration (MIC) assay, MRSA; format: cell-based; conditions: Staphylococcus aureus, broth microdilution
Protocol: as §1, §2, §3

Hep2 = assay: Cytotoxicity, cell viability staining with Alamar Blue; format: cell-based, human; parameters: unit not given here; conditions: Hep2 cells
Protocol: as §1
To determine whether the microcidal effect observed against S. aureus and E. coli is specific to bacterial cells, compounds are screened for cell viability effects on several human cell types.
Optimal cell density is first determined by plating cells in a 96-well plate standard sterile tissue culture plates in 100 μl media, 10% FBS at six cell densities from 500 cells/well to 15,000 cells/well. A cell free well containing only media is used as a control. Cells are incubated at 37° C. in a 5% CO2 incubator for 24 hours. 10% culture volume (10 ul) of Alamar Blue (Biosource, DAL1100, 100 mL) is then added. Cells are incubated at 37° C. in a 5% CO2 incubator and read in a Victor V plate reader, 544 nm excitation, 590 nm emission, at 3, 4, and 24 hours after the addition of Alamar Blue. The cell number vs. change in fluorescence is plotted to determine linearity of signal vs. cell number. The optimal density varies between 500-15,000 cells/well depending on the specific cell type. The optimal density is selected based on the highest number of cells that is still in the linear response range.
Cells are plated at optimal cell density in a standard sterile tissue culture 96 well plate, and incubated at 37° C., O/N in a 5% CO2 incubator. 12 to 48 hours post-plating media is removed. The cells are washed 1 or 2 times with 1×PBS and replaced with fresh media containing the test compound in 1% DMSO. 24 to 72 hours after addition of compound, the media is removed, and the cells washed 1 to 2 times with 1×PBS. Fresh media containing 1/10 volume of Alamar Blue is then added. Plates are incubated 4 hours at 37° C. in a 5% CO2 incubator and read in a Victor V plate reader, 544 nm excitation, 590 nm emission.
Compounds are diluted to 20 micromolar in 1% DMSO and media and screened in duplicate to obtain single concentration cytotoxicity data. Eight concentration points from 0.78 micromolar to 100 micromolar, run in duplicate, are used to determine cytotoxicity CC50 values. Cells with 1% DMSO and media are used as a negative control, compounds having a known CC50 against a particular cell type are used as positive controls.
The change in fluorescence vs. concentration of test compound is plotted to determine the cytotoxicity of the compound.

SMILES: COc1c(N2CC[C@@H](CNC(=O)CN)C2)c(F)cc2c(=O)c3c(O)c(C(C)=O)sc3n(C3CC3)c12 [Compound 15, (S)-N-((1-(2-acetyl-9-cyclopropyl-6-fluoro-3-hydroxy-8-methoxy-4-oxo-4,9-dihydrothieno [2,3-b]quinolin-7-yl)pyrrolidin-3-yl)methyl)-2-aminoacetamide]
- MIC (S. aureus ATCC 29213): 0.5 µg/mL (≈ 0.995 µM)
- MIC [1]: 1 µg/mL (≈ 1.99 µM)

SMILES: COc1c(N2CC[C@@H](CNC(C)=O)C2)c(F)cc2c(=O)c3c(n(C4CC4)c12)SCC3=O [Compound 14, (S)-N-((1-(9-cyclopropyl-6-fluoro-8-methoxy-3,4-dioxo-2,3,4,9-tetrahydrothieno [2,3-b]quinolin-7-yl)pyrrolidin-3-yl)methyl) acetamide]
- MIC (S. aureus ATCC 29213): 32 µg/mL (≈ 71.8 µM)
- MIC [1]: > 64 µg/mL

SMILES: COc1c(N2CC[C@@H]([C@H](C)N)C2)c(F)cc2c(=O)c3c(O)c(C(C)=O)sc3n(C3CC3)c12 [Compound 8, 2-acetyl-7-((R)-3-((S)-1-aminoethyl)pyrrolidin-1-yl)-9-cyclopropyl-6-fluoro-3-hydroxy-8-methoxythieno [2,3-b]quinolin-4(9H)-one]
- MIC (S. aureus ATCC 29213): 0.03 µg/mL (≈ 0.0653 µM)
- MIC [1]: 0.13 µg/mL (≈ 0.283 µM)
- Cytotoxicity Hep2 (Hep2): 9

SMILES: COc1c(N2CC[C@@H](CNS(=O)(=O)c3cc(F)ccc3C)C2)c(F)cc2c(=O)c3c(O)c(C(C)=O)sc3n(C3CC3)c12 [Compound 16, (R)-N-((1-(2-acetyl-9-cyclopropyl-6-fluoro-3-hydroxy-8-methoxy-4-oxo-4,9-dihydrothieno [2,3-b]quinolin-7-yl)pyrrolidin-3-yl)methyl)-5-fluoro-2-methylbenzenesulfonamide]
- MIC (S. aureus ATCC 29213): 32 µg/mL (≈ 51.8 µM)
- MIC [1]: > 64 µg/mL

SMILES: COc1c(N2CC[C@@H]([C@H](C)NC(=O)OC(C)(C)C)C2)c(F)cc2c(=O)c3c(O)c(C(C)=O)sc3n(C3CC3)c12 [Compound 22, tert-butyl ((S)-1-((R)-1-(2-acetyl-9-cyclopropyl-6-fluoro-3-hydroxy-8-methoxy-4-oxo-4,9-dihydrothieno[2,3-b]quinolin-7-yl)pyrrolidin-3-yl)ethyl)carbamate]
- MIC (S. aureus ATCC 29213): > 64 µg/mL
- MIC [1]: > 64 µg/mL

SMILES: COc1c(N2CCCC(=C(F)CN)C2)c(F)cc2c(=O)c3c(O)c(C(C)=O)sc3n(C3CC3)c12 [Compound 6, 2-acetyl-7-(3-(2-amino-1-fluoroethylidene)piperidin-1-yl)-9-cyclopropyl-6-fluoro-3-hydroxy-8-methoxythieno [2,3-b]quinolin-4(9H)-one]
- MIC (S. aureus ATCC 29213): 0.25 µg/mL (≈ 0.511 µM)
- MIC [1]: 0.5 µg/mL (≈ 1.02 µM)

SMILES: COc1c(N2CC[C@@H]([C@@H](C)N)C2)c(F)cc2c(=O)c3c(O)c(C(C)=O)sc3n(C3CC3)c12 [Compound 21, 2-acetyl-7-((R)-3-((R)-1-aminoethyl)pyrrolidin-1-yl)-9-cyclopropyl-6-fluoro-3-hydroxy-8-methoxythieno[2,3-b] quinolin-4(9H)-one]
- MIC (S. aureus ATCC 29213): 0.13 µg/mL (≈ 0.283 µM)
- MIC [1]: 1 µg/mL (≈ 2.18 µM)

SMILES: COc1c(N2CC[C@@H]([C@H](C)N)C2)c(F)cc2c(=O)c3c(n(C4CC4)c12)SCC3=O [Compound 20, 7-((R)-3-((S)-1-aminoethyl)pyrrolidin-1-yl)-9-cyclopropyl-6-fluoro-8-methoxythieno[2,3-b] quinoline-3,4(2H,9H)-dione]
- MIC (S. aureus ATCC 29213): 4 µg/mL (≈ 9.58 µM)
- MIC [1]: 16 µg/mL (≈ 38.3 µM)

SMILES: COc1c(N2CC[C@H](CN)C2)c(F)cc2c(=O)c3c(O)c(C(C)=O)sc3n(C3CC3)c12 [Compound 13, (R)-2-acetyl-7-(3-(aminomethyl)pyrrolidin-1-yl)-9-cyclopropyl-6-fluoro-3-hydroxy-8-methoxythieno[2,3-b] quinolin-4(9H)-one]
- MIC (S. aureus ATCC 29213): 0.13 µg/mL (≈ 0.292 µM)
- MIC [1]: 0.25 µg/mL (≈ 0.561 µM)

SMILES: COc1c(N2CC[C@H](N)C2)c(F)cc2c(=O)c3c(O)c(C(C)=O)sc3n(C3CC3)c12 [Compound 7, (S)-2-acetyl-7-(3-aminopyrrolidin-1-yl)-9-cyclopropyl-6-fluoro-3-hydroxy-8-methoxythieno [2,3-b]quinolin-4(9H)-one]
- MIC (S. aureus ATCC 29213): 0.13 µg/mL (≈ 0.301 µM)
- MIC [1]: 0.25 µg/mL (≈ 0.579 µM)
- Cytotoxicity Hep2 (Hep2): 35

SMILES: COc1c(N2CCC(CN)CC2)c(F)cc2c(=O)c3c(O)c(C(C)=O)sc3n(C3CC3)c12 [Compound 9, 2-acetyl-7-(4-(aminomethyl)piperidin-1-yl)-9-cyclopropyl-6-fluoro-3-hydroxy-8-methoxythieno[2,3-b] quinolin-4(9H)-one]
- MIC (S. aureus ATCC 29213): 0.25 µg/mL (≈ 0.544 µM)
- MIC [1]: 1 µg/mL (≈ 2.18 µM)
- Cytotoxicity Hep2 (Hep2): 42

SMILES: COc1c(N2CC[C@@H](CN)C2)c(F)cc2c(=O)c3c(O)csc3n(C3CC3)c12 [Compound 10, (S)-7-(3-(aminomethyl)pyrrolidin-1-yl)-9-cyclopropyl-6-fluoro-3-hydroxy-8-methoxythieno[2,3-b] quinolin-4(9H)-one]
- MIC (S. aureus ATCC 29213): 4 µg/mL (≈ 9.91 µM)
- Cytotoxicity Hep2 (Hep2): 24

SMILES: COc1c(N2CCCC(CN)C2)c(F)cc2c(=O)c3c(O)c(C(N)=O)sc3n(C3CC3)c12 (stereo not drawn) [Compound 5, 7-(3-(aminomethyl)piperidin-1-yl)-9-cyclopropyl-6-fluoro-3-hydroxy-8-methoxy-4-oxo-4,9-dihydrothieno[2,3-b]quinoline-2-carboxamide]
- MIC (S. aureus ATCC 29213): 0.5 µg/mL (≈ 1.09 µM)
- MIC [1]: 2 µg/mL (≈ 4.34 µM)
- Cytotoxicity Hep2 (Hep2): 30

SMILES: COc1c(N2CC[C@H](NC(C)=O)C2)c(F)cc2c(=O)c3c(O)c(C(C)=O)sc3n(C3CC3)c12 [Compound 18, (S)-N-(1-(2-acetyl-9-cyclopropyl-6-fluoro-3-hydroxy-8-methoxy-4-oxo-4,9-dihydrothieno [2,3-b]quinolin-7-yl)pyrrolidin-3-yl)acetamide]
- MIC (S. aureus ATCC 29213): 0.25 µg/mL (≈ 0.528 µM)
- MIC [1]: 1 µg/mL (≈ 2.11 µM)

SMILES: COc1c(N2CC[C@@H](CNC(C)=O)C2)c(F)cc2c(=O)c3c(O)c(C(C)=O)sc3n(C3CC3)c12 [Compound 11, (S)-N-((1-(2-acetyl-9-cyclopropyl-6-fluoro-3-hydroxy-8-methoxy-4-oxo-4,9-dihydrothieno [2,3-b]quinolin-7-yl)pyrrolidin-3-yl)methyl) acetamide]
- MIC (S. aureus ATCC 29213): 0.13 µg/mL (≈ 0.267 µM)
- MIC [1]: 0.5 µg/mL (≈ 1.03 µM)
- Cytotoxicity Hep2 (Hep2): 60

SMILES: COc1c(N2CC[C@@H](CNS(=O)(=O)c3cc(F)ccc3C)C2)c(F)cc2c(=O)c3c(OS(=O)(=O)c4cc(F)ccc4C)c(C(C)=O)sc3n(C3CC3)c12 [Compound 17, (R)-2-acetyl--cyclopropyl-6-fluoro-7-(3-((5-fluoro-2-methylphenylsulfonamido)methyl)pyrrolidin-1-yl)-8-methoxy-4-oxo-4,9-dihydrothieno[2,3-b] quinolin-3-yl 5-fluoro-2-methylbenzenesulfonate]
- MIC (S. aureus ATCC 29213): > 64 µg/mL
- MIC [1]: > 64 µg/mL

SMILES: COc1c(N2CC[C@@H]([C@H](C)NC(C)=O)C2)c(F)cc2c(=O)c3c(O)c(C(C)=O)sc3n(C3CC3)c12 [Compound 19, N-((S)-1-((R)-1-(2-acetyl-9-cyclopropyl-6-fluoro-3-hydroxy-8-methoxy-4-oxo-4,9-dihydrothieno[2,3-b]quinolin-7-yl)pyrrolidin-3-yl)ethyl) acetamide]
- MIC (S. aureus ATCC 29213): 0.25 µg/mL (≈ 0.498 µM)
- MIC [1]: 0.5 µg/mL (≈ 0.997 µM)
